Values after ≈ are worked out from the molar mass of the structure shown. Some results are limits rather than exact numbers.

Data on one compound can be found in paper PMC5620575 (Pharmaceutics, 2017).

Details of data set [1]: method as in ref 25 = [25]; 25. ZYVOXAM ® Product Monograph Pfizer Canada Inc. Kirkland, QC, Canada 2015. The conditions noted are these: humans; cited from earlier work.
The next data set has as its system Heamophilus influenzae. Also noted: method as in PMID 12467705, PMID 15911326, PMID 17140706, PMID 19376613, PMID 23811087. Particulars: unit printed only for the neighbouring MICs of the sentence; cited from earlier work.
In the next data set the test system is Moraxella catarrhalis. Also noted: method as in PMID 12467705, PMID 15911326, PMID 17140706, PMID 19376613, PMID 23811087. The conditions noted are these: cited from earlier work.
Data set [2] in a line: tissue to plasma distribution. The class given is in vivo. Particulars: New Zealand White, rabbit, in vivo, 2 x 10 mg/kg IV, 2 h after second dose, n = 3, read-out: Tissue to Plasma Concentration Ratio, Kidney. As to the method:
Three groups of White New Zealand rabbits (n = 3, each) weighing 3.0–3.5 kg were used. Each group received 10 mg/kg of one compounds administered intravenously over a period of 3–5 min, followed one hour later by a second IV dose of 10 mg/kg. Two h later, the rabbits were euthanized with an IV dose of pentobarbital. Plasma and tissue samples, including kidney, liver, lungs, spleen, heart, muscles, and vetrus fluid were collected immediately, and stored at −80 °C until analysis.
Plasma ultra-filtrate samples were analyzed using the same procedures for the plasma. Tissue homogenates were prepared by adding 1 gm of the tissues samples to 4 g of phosphate buffer, pH 7.4 (1:4, w/w), then homogenization using Tissue-Tearor, Bio-Spec Products Inc. (Bartlesville, OK, USA). Aliquots of 200 μL of tissue homogenate samples were analyzed using the procedures for the plasma and the concentrations were determined using plasma calibrators as described and validated previously for Lzd and PH027 [18].
The tissue to plasma concentration ratios for the three compounds were calculated from the ratio of the tissue homogenate concentrations corrected for the dilution during the homoginization process and the plasma concentrations. Generally, the three compounds have very good distribution to all tissues. The tissue to plasma distribution ratios for the novel compounds were more than one in kidney, lung, liver, heart, muscles and spleen, and the ratios were more than those for Lzd in all investigated tissues. Table 3, summerizes the tissue to plasma distribution ratios for the three compounds in different tissues.

A further data set relates to Escherichia coli. Also noted: method as in PMID 12467705, PMID 15911326, PMID 17140706, PMID 19376613, PMID 23811087. Particulars: cited from earlier work.
Data set [3] in a line: pharmacokinetics after single oral administration as microemulsion. The class given is in vivo. Particulars: New Zealand White, plasma, rabbit, 20 mg/kg, n = 3. As to the method: Three groups of rabbits (n = 3, each) received 20 mg/kg oral dose of each compound in the form of microemulsion through a pediatric feeding tube. After administration, serial blood samples were obtained through the IV catheter, over a period of 10 h. Plasma was obtained from blood by centrifugation, and samples were kept at −80 °C until analysis.
(§1) The pharmacokinetic parameters for each of the three compounds including half-life (t1/2), volume of distribution (Vd), elimination rate constant (k), area under the plasma concentration-time curve (AUC), total body clearance (CLT), renal clearance (CLR), and oral bioavailability (F) were determined using the general pharmacokinetic parameter calculation procedures using PKPD tools for Microsoft Excel. The obtained pharmacokinetic parameters for each compound were compared using Statistical Package of Social Sciences (SPSS) to determine the difference in the pharmacokinetic behavior for the three compounds.

For data set [4], the system named is Staphylococcus aureus and Enterococci spp. Set-up: method as in PMID 12467705, PMID 15911326, PMID 17140706, PMID 19376613, PMID 23811087. Particulars: clinical isolates; cited from earlier work.
For data set [5] the following is noted: humans; cited from earlier work.
A short description of data set [6]: pharmacokinetics after single IV administration. The class given is in vivo. The conditions noted are these: rabbit, 5 mg/kg.
From the text: IV administration of the compounds under investigation, and collection of blood samples were through a catheter inserted in the marginal ear vein of the rabbit (I-Cath, CharterMed Inc., Winston-Salem, NC, USA). After IV drug administration, blood was withdrawn to fill the cannula and then reinjected three times before obtaining any blood samples to prevent contamination. Furthermore, the cannula was flushed with heparinized saline to prevent blockage of the cannula and prevent sample to sample contamination.
Urine samples were collected utilizing Foly Catheter (size French 8). The catheter was inserted into the rabbit bladder using a lubricant. When urine is collected over a specific time interval, the bladder was irrigated with 3 × 15 mL normal saline at 3 min, 6 min, and 10 min before the end of the urine collection interval [15, 16]. Irrigation of the bladder is necessary to obtain the majority of the drug eliminated in urine during the collection interval.
Three groups of rabbits (n = 4, each) received 5 mg/kg dose of each compound via the IV catheter. This dose was selected based on the results of a preliminary experiment to achieve measurable plasma concentrations for 8 h using our analytical methods, to ensure good characterization of the plasma concentration-time profile. Accurately weighed Lzd and PH027 powder were dissolved first in 600 μL of ethanol using an ultrasound water bath. The resulting solution was then diluted with normal saline to produce the solutions used for IV administration, which consist of the dose of the compound dissolved in 3 mL of 20% ethanol in normal saline. PH051 required the use of slightly larger volume of ethanol to achieve complete dissolution. So, 900 μL of ethanol were used, and the resulting solution used for IV administration consisted of PH051 dose dissolved in 3 mL of 30% ethanol in normal saline. The difference in the volume of ethanol administered, 300 μL, which was necessary to ensure complete dissolution of PH051, should not have a significant effect on the pharmacokinetic behavior of PH051. The solutions were administered slowly over a period of […] administration, serial blood and urine samples were obtained over a period of 8 h. Plasma was obtained from blood by centrifugation, and samples were kept at −80 °C until analysis. The volumes of urine samples were determined and recorded, and aliquots were kept at −80 °C until analysis.
as §1

For data set [7] the following is noted: weak base; reported, no reference given; cited from earlier work.
In a further data set the test system is S. aureus Giorgio. Also noted: method as in ref unpublished data from Jin-Hwan Kwak at Handong Global University. The conditions noted are these: oral suspension 1 and 4 h after infection, survival recorded for 72 h; ref unpublished data from Jin-Hwan Kwak at Handong Global University; cited from earlier work.
In a further data set the test system is Streptococcus pneumoniae. Also noted: method as in PMID 12467705, PMID 15911326, PMID 17140706, PMID 19376613, PMID 23811087. Particulars: cited from earlier work.
Data set [8] is described as follows: pharmacokinetics after single oral administration as suspension. The format is in vivo. The conditions noted are these: New Zealand White, plasma, rabbit, 20 mg/kg, n = 4. As for the experimental part: The pediatric feeding tube was pushed until it reached the stomach.
Three groups of rabbits (n = 4, each) received 20 mg/kg oral dose of each compound. […] Accurately weighted amounts of each compound were dissolved/suspended in 20 mL of warm normal saline using an ultrasound water bath. […] The solutions/suspensions of the three compounds were administered orally to the rabbits using a pediatric feeding tubes. After oral administration of each compound, serial blood samples were obtained through the IV catheter, over a period of 10 h after administration. Plasma was obtained from blood by centrifugation, and samples were kept at −80 °C until analysis.
as §1

On the set-up of data set [9]: method as in unpublished data from our laboratory. The conditions noted are these: rabbit urine after IV administration; ref unpublished data from our laboratory; cited from earlier work.
The mark [10] stands for this setting: White New Zealand, plasma, n = 4.

As for `CC(=O)NC[C@H]1CN(c2ccc(N3CCOCC3)c(F)c2)C(=O)O1` [Linezolid, reference compound], the “dose excretion in urine” value in data set [1] was 30%. Besides, the MIC is 8 µg/mL (≈ 23.7 µM) in the data set on Heamophilus influenzae; 8.0 µg/mL (≈ 23.7 µM) with Moraxella catarrhalis; above 64 µg/mL with Escherichia coli; 0.5 to 1.0 µg/mL in [4]; 0.5 µg/mL (≈ 1.48 µM) in the data set with Streptococcus pneumoniae. In data set [2], the Kp at 2 h is 2.05 ± 0.067. In addition, the AUC (usually the area under the concentration-time curve, a measure of exposure) was found to be 8350 ± 3340 ng·h/mL in data set [3], 4040 ± 1280 ng·h/mL in [6] (setting [10]) and 6250 ± 3620 ng·h/mL in [8]. Also, the Cmax (in general, the peak of the concentration-time curve) worked out at 3410 ± 1800 ng/mL in data set [3] and 3910 ± 1010 ng/mL in data set [8]. Also, the Tmax (in general, the time from dosing to the highest level) in [3] is 45 min; in [8], 60 min. The plasma protein binding in [5] was 30%. Also, the half-life – broadly, how long it takes for the measured level to halve – in data set [6] (setting [10]) was found to be 52.4 ± 6.3 min. Further, the k el in data set [6] (White New Zealand, plasma, n = 4, read-out: Elimination rate constant (converted)) is 0.00022 s⁻¹. Besides, the CL renal in data set [6] (White New Zealand, urine and plasma, from renal excretion rate and plasma drug concentration, read-out: Renal clearance (converted)) was 1.38 mL/min/kg. In [6] (n = 4), this compound displayed a CLT of 20.7 ± 7.17 mL/min/kg. The “Fraction excreted unchanged in urine” value in data set [6] (ratio of renal clearance to total body clearance) stood at 5.70%. The pKa – broadly, the pH at which an ionisable group is half protonated – in data set [7] was 1.4. In addition, the “in vivo activity against systemic mice infection” value in the data set on S. aureus Giorgio is “better than the in vivo activity of the novel triazolyl-oxazolidinone derivatives”. Also, in [9], the main metabolic route result is on record as “metabolized mainly through oxidation”.
